The values below are quoted from earlier work in patent publication US20090285767A1, “USE OF OZONATED LIQUIDS AND PEROXIDES TO WHITEN TEETH” (priority 2008, published 2009).

The conditions of this data set: gaseous ozone, device of the Lynch '985 patent.

`O=[O+][O-]` [gaseous ozone, ozone]: the “whitening of extrinsic discoloration, effect on brown-colored melanoidins” value is listed as “ability of gaseous ozone to whiten extrinsic discoloration”.
